Columns and labels:
B/Florida/04/2006 = experiment: Antiviral activity (drug efficacy evaluation by concentration) against B/Florida/04/2006; format: cell-based, B type influenza virus
[1] = test system: A/California/07/2009 (H1N1); experiment: Antiviral activity (drug efficacy evaluation by concentration) against A/California/07/2009 (H1N1); format: cell-based, A type influenza virus; conditions: Influenza A virus, H1N1; read-out: EC50
A/Perth/16/2009 (H3N2) = experiment: Antiviral activity (drug efficacy evaluation by concentration) against A/Perth/16/2009 (H3N2); format: cell-based, A type influenza virus; conditions: Influenza A virus, H3N2; read-out: EC50
[2] = CC50, third EC50/CC50 column pair (c7), beside the EC50 of c6

Work on Brc1ccc(Cc2nnc(/C=C/c3ccccc3-c3ccccc3)o2)cc1 [Compound 126, (E)-2-(2-([1,1′-biphenyl]-2-yl)vinyl)-5-(4-bromobenzyl)-1,3,4-oxadiazole] yielded an EC50 (B/Florida/04/2006) of over 50 µM, an EC50 [1] of 45.7 µM and an EC50 (A/Perth/16/2009 (H3N2)) of over 50 µM. The melting point was 87.4 °C, the CC50 (in vitro; CC50, beside the EC50 of c2) was over 50 µM and the CC50 (in vitro; CC50, beside the EC50 of c4) was over 50 µM. The CC50 (in vitro; [2]) was over 50 µM.

In the case of Brc1ccc(Cc2nnc(/C=C/c3ccccc3Oc3ccccc3)o2)cc1 [Compound 127, (E)-2-(4-bromobenzyl)-5-(2-phenoxystyryl)-1,3,4-oxadiazole], the EC50 (B/Florida/04/2006) is reported as 16 µM, the EC50 [1] is reported as 34.9 µM and the EC50 (A/Perth/16/2009 (H3N2)) is reported as 24.4 µM. For the same compound, the melting point was 125.5 °C, the CC50 (in vitro; CC50, beside the EC50 of c2) was over 50 µM and the CC50 (in vitro; CC50, beside the EC50 of c4) was over 50 µM. For the same compound, the CC50 (in vitro; [2]) was over 50 µM.

Work on CC(C)c1ccccc1/C=C/c1nnc(Cc2cccc(Br)c2)o1 [Compound 130, 2-(3-bromobenzyl)-5-(2-isopropylstyryl)-1,3,4-oxadiazole] yielded an EC50 (B/Florida/04/2006) of 36.2 µM, an EC50 [1] of 42.4 µM and an EC50 (A/Perth/16/2009 (H3N2)) of 32.8 µM. It also gave a melting point of 79.3 °C, a CC50 (in vitro; CC50, beside the EC50 of c2) of over 50 µM and a CC50 (in vitro; CC50, beside the EC50 of c4) of over 50 µM. For the same compound, the CC50 (in vitro; [2]) was over 50 µM.

For CC(C)c1ccccc1/C=C/c1nnc(Cc2cccc3ccccc23)o1 [Compound 132, 2-(2-isopropylstyryl)-5-(naphthalen-1-ylmethyl)-1,3,4-oxadiazole], the EC50 (B/Florida/04/2006) was 1.58 µM, the EC50 [1] was 1.52 µM and the EC50 (A/Perth/16/2009 (H3N2)) was 1.14 µM. It also gave a melting point of 148.1 °C, a CC50 (in vitro; CC50, beside the EC50 of c2) of 10.8 µM and a CC50 (in vitro; CC50, beside the EC50 of c4) of 12.2 µM. It also gave a CC50 (in vitro; [2]) of 13.6 µM.

For CC(C)c1cccc(/C=C/c2nnc(Cc3ccc(Br)cc3)o2)c1 [Compound 151, 2-(4-bromobenzyl)-5-(3-isopropylstyryl)-1,3,4-oxadiazole], the EC50 (B/Florida/04/2006) was 6.39 µM, the EC50 [1] was 21.3 µM and the EC50 (A/Perth/16/2009 (H3N2)) was 6.38 µM. It also gave a melting point of 61.8 °C, a CC50 (in vitro; CC50, beside the EC50 of c2) of over 50 µM and a CC50 (in vitro; CC50, beside the EC50 of c4) of over 50 µM. The CC50 (in vitro; [2]) was over 50 µM.

Fc1ccc(/C=C/c2nnc(Cc3ccccc3)o2)c(Cl)c1 [Compound 158, (E)-2-benzyl-5-(2-chloro-4-fluorostyryl)-1,3,4-oxadiazole] gave an EC50 (B/Florida/04/2006) of over 50 µM, an EC50 [1] of over 50 µM and an EC50 (A/Perth/16/2009 (H3N2)) of over 50 µM. It also gave a melting point of 125.9 °C, a CC50 (in vitro; CC50, beside the EC50 of c2) of over 50 µM and a CC50 (in vitro; CC50, beside the EC50 of c4) of over 50 µM. For the same compound, the CC50 (in vitro; [2]) was over 50 µM.

For Clc1cc2c(cc1/C=C/c1nnc(Cc3ccc(Br)cc3)o1)OCO2 [Compound 162, 2-(4-bromobenzyl)-5-(2-(6-chlorobenzo[d][1,3]dioxol-5-yl)vinyl)-1,3,4-oxadiazole], the EC50 (B/Florida/04/2006) was over 50 µM, the EC50 [1] was 30.5 µM and the EC50 (A/Perth/16/2009 (H3N2)) was over 50 µM. For the same compound, the melting point was 186.2 °C, the CC50 (in vitro; CC50, beside the EC50 of c2) was over 50 µM and the CC50 (in vitro; CC50, beside the EC50 of c4) was over 50 µM. For the same compound, the CC50 (in vitro; [2]) was over 50 µM.

For Brc1ccc(Cc2nnc(/C=C/c3ccccc3)o2)cc1 [Compound 165, 2-(4-bromobenzyl)-5-styryl-1,3,4-oxadiazole], the EC50 (B/Florida/04/2006) was 2.84 µM, the EC50 [1] was 1.95 µM and the EC50 (A/Perth/16/2009 (H3N2)) was 3.76 µM. It also gave a melting point of 110.6 °C, a CC50 (in vitro; CC50, beside the EC50 of c2) of 12.6 µM and a CC50 (in vitro; CC50, beside the EC50 of c4) of 13.5 µM. The CC50 (in vitro; [2]) was 10.1 µM.

CC(C)c1ccccc1/C=C/c1nnc(Cc2ccc(Br)cc2F)o1 [Compound 169, 2-(4-bromo-2-fluorobenzyl)-5-(2-isopropylstyryl)-1,3,4-oxadiazole] showed an EC50 (B/Florida/04/2006) of 3.08 µM, an EC50 [1] of 2.13 µM and an EC50 (A/Perth/16/2009 (H3N2)) of 2.22 µM. For the same compound, the melting point was 71.9 °C, the CC50 (in vitro; CC50, beside the EC50 of c2) was 20.3 µM and the CC50 (in vitro; CC50, beside the EC50 of c4) was over 50 µM. The CC50 (in vitro; [2]) was 37.2 µM.

Work on Cc1ccccc1/C=C/c1nnc(Cc2ccc(Br)cc2)o1 [Compound 170, 2-(4-bromobenzyl)-5-(2-methylstyryl)-1,3,4-oxadiazole] yielded an EC50 (B/Florida/04/2006) of 2.05 µM, an EC50 [1] of 2 µM and an EC50 (A/Perth/16/2009 (H3N2)) of 2.04 µM. The melting point was 108.5 °C, the CC50 (in vitro; CC50, beside the EC50 of c2) was 8.53 µM and the CC50 (in vitro; CC50, beside the EC50 of c4) was 6.63 µM. It also gave a CC50 (in vitro; [2]) of 9.08 µM.

Work on Clc1ccc(/C=C/c2nnc(Cc3ccc(Br)cc3)o2)cc1 [Compound 171, 2-(4-bromobenzyl)-5-(4-chlorostyryl)-1,3,4-oxadiazole] yielded an EC50 (B/Florida/04/2006) of 4.3 µM, an EC50 [1] of 3.74 µM and an EC50 (A/Perth/16/2009 (H3N2)) of 3.63 µM. For the same compound, the melting point was 129 °C, the CC50 (in vitro; CC50, beside the EC50 of c2) was over 50 µM and the CC50 (in vitro; CC50, beside the EC50 of c4) was 49.5 µM. The CC50 (in vitro; [2]) was 36.2 µM.

Work on Brc1ccc(Cc2noc(/C=C/c3ccccc3)n2)cc1 [Compound 174, (E)-3-(4-bromobenzyl)-5-styryl-1,2,4-oxadiazole] yielded an EC50 (B/Florida/04/2006) of 1.45 µM, an EC50 [1] of 3.78 µM and an EC50 (A/Perth/16/2009 (H3N2)) of 1.54 µM. For the same compound, the melting point was 86.7 °C, the CC50 (in vitro; CC50, beside the EC50 of c2) was 6.53 µM and the CC50 (in vitro; CC50, beside the EC50 of c4) was 5.46 µM. The CC50 (in vitro; [2]) was 6.3 µM.

Work on Cc1ccc(F)c(Cc2nnc(/C=C/c3ccc(F)cc3Cl)o2)c1 [Compound 177, (E)-2-(2-chloro-4-fluorostyryl)-5-(2-fluoro-5-methylbenzyl)-1,3,4-oxadiazole] yielded an EC50 (B/Florida/04/2006) of 1.07 µM, an EC50 [1] of 0.835 µM and an EC50 (A/Perth/16/2009 (H3N2)) of 0.753 µM. The melting point was 136.9 °C, the CC50 (in vitro; CC50, beside the EC50 of c2) was over 50 µM and the CC50 (in vitro; CC50, beside the EC50 of c4) was over 50 µM. It also gave a CC50 (in vitro; [2]) of over 50 µM.

Compound Fc1ccc(/C=C/c2nnc(Cc3cccc(Br)c3)o2)c(Cl)c1 [Compound 178, (E)-2-(3-bromobenzyl)-5-(2-chloro-4-fluorostyryl)-1,3,4-oxadiazole] has an EC50 (B/Florida/04/2006) of 0.95 µM, an EC50 [1] of 0.99 µM and an EC50 (A/Perth/16/2009 (H3N2)) of 0.75 µM. The melting point was 121.7 °C, the CC50 (in vitro; CC50, beside the EC50 of c2) was over 50 µM and the CC50 (in vitro; CC50, beside the EC50 of c4) was over 50 µM. For the same compound, the CC50 (in vitro; [2]) was over 50 µM.

For Fc1ccc(/C=C/c2nnc(Cc3ccc(Cl)nc3)o2)c(Cl)c1 [Compound 180, (E)-2-(2-chloro-4-fluorostyryl)-5-((6-chloropyridin-3-yl)methyl)-1,3,4-oxadiazole], the EC50 (B/Florida/04/2006) was 0.98 µM, the EC50 [1] was 1.05 µM and the EC50 (A/Perth/16/2009 (H3N2)) was 0.51 µM. For the same compound, the melting point was 163 °C, the CC50 (in vitro; CC50, beside the EC50 of c2) was over 50 µM and the CC50 (in vitro; CC50, beside the EC50 of c4) was over 50 µM. For the same compound, the CC50 (in vitro; [2]) was over 50 µM.

Compound Cc1ccc(Cc2nnc(/C=C/c3ccc(F)cc3Cl)o2)cc1Br [Compound 181, (E)-2-(3-bromo-4-methylbenzyl)-5-(2-chloro-4-fluorostyryl)-1,3,4-oxadiazole] has an EC50 (B/Florida/04/2006) of 8.29 µM, an EC50 [1] of 10.9 µM and an EC50 (A/Perth/16/2009 (H3N2)) of 5.56 µM. It also gave a melting point of 139 °C, a CC50 (in vitro; CC50, beside the EC50 of c2) of over 50 µM and a CC50 (in vitro; CC50, beside the EC50 of c4) of over 50 µM. It also gave a CC50 (in vitro; [2]) of over 50 µM.

With CC(C)c1cccc(Cc2nnc(/C=C/c3ccc(F)cc3Cl)o2)c1 [Compound 182, (E)-2-(2-chloro-4-fluorostyryl)-5-(3-isopropylbenzyl)-1,3,4-oxadiazole] the EC50 (B/Florida/04/2006) was 0.549 µM, the EC50 [1] was 0.617 µM and the EC50 (A/Perth/16/2009 (H3N2)) was 0.373 µM. The melting point was 117.3 °C, the CC50 (in vitro; CC50, beside the EC50 of c2) was over 50 µM and the CC50 (in vitro; CC50, beside the EC50 of c4) was over 50 µM. The CC50 (in vitro; [2]) was over 50 µM.

For Brc1ccc(Cc2nc(/C=C/c3ccccc3)no2)cc1 [Compound 183, (E)-5-(4-bromobenzyl)-3-styryl-1,2,4-oxadiazole], the EC50 (B/Florida/04/2006) was 1.86 µM, the EC50 [1] was 1.33 µM and the EC50 (A/Perth/16/2009 (H3N2)) was 0.904 µM. It also gave a melting point of 78.4 °C, a CC50 (in vitro; CC50, beside the EC50 of c2) of over 50 µM and a CC50 (in vitro; CC50, beside the EC50 of c4) of over 50 µM. The CC50 (in vitro; [2]) was over 50 µM.

Fc1ccc(/C=C/c2nnc(Cc3ccc(Br)c(F)c3)o2)c(Cl)c1 [Compound 184, (E)-2-(4-bromo-3-fluorobenzyl)-5-(2-chloro-4-fluorostyryl)-1,3,4-oxadiazole] showed an EC50 (B/Florida/04/2006) of over 50 µM, an EC50 [1] of over 50 µM and an EC50 (A/Perth/16/2009 (H3N2)) of over 50 µM. It also gave a melting point of 166.2 °C, a CC50 (in vitro; CC50, beside the EC50 of c2) of over 50 µM and a CC50 (in vitro; CC50, beside the EC50 of c4) of over 50 µM. It also gave a CC50 (in vitro; [2]) of over 50 µM.

In the case of Fc1ccc(/C=C/c2nnc(Cc3cccc4ccccc34)o2)c(Cl)c1 [Compound 185, (E)-2-(2-chloro-4-fluorostyryl)-5-(naphthalen-1-ylmethyl)-1,3,4-oxadiazole], the EC50 (B/Florida/04/2006) is reported as over 50 µM, the EC50 [1] is reported as over 50 µM and the EC50 (A/Perth/16/2009 (H3N2)) is reported as over 50 µM. For the same compound, the melting point was 152.7 °C, the CC50 (in vitro; CC50, beside the EC50 of c2) was over 50 µM and the CC50 (in vitro; CC50, beside the EC50 of c4) was over 50 µM. The CC50 (in vitro; [2]) was over 50 µM.

Source: patent US11149033B2, “Heteroaryl compound, enantiomer, diastereomer or pharmaceutically acceptable salt thereof, and antiviral composition containing same as active ingredient” (priority 2016, dated 2021)
